Assay results taken from ChEMBL document CHEMBL1201862, “PubChem BioAssay data set” (2004).
Activity calls are given as the source filed them.

How the values were obtained:
BJ [1] = assay: BJ-TERT fibroblast viability loss – cell-based, RAS-independent, luminescence, dose response (AID 1933); format: functional; settings: Homo sapiens
BJ [2] = assay: cells; format: functional, cell-based; settings: Homo sapiens
BJ [3] = assay: BJ-TERT-LT-ST fibroblast viability loss – cell-based, RAS-independent, luminescence, dose response (AID 1935); format: functional; settings: Homo sapiens;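 note: BJ fibroblasts immortalized with TERT plus LT and ST oncogenes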
[4] = DRD fibroblast viability loss – cell-based, non-viral oncogenic, luminescence, dose response (AID 1934); format: functional; settings: Homo sapiens
[5] = intracellular Trypanosoma cruzi inhibitors in host cells – cell-based, plate reader, cherry-pick samples, set 3, dose response (AID 651818); format: functional;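 note: compounds incubated with infected cells for about four days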
P388/ADR = assay: cells; format: functional; settings: Mus musculus
SN12K1 = assay: cells; format: functional; settings: Homo sapiens
P388 = assay: cells; format: functional; settings: Mus musculus
[6] = biological target: FAD-linked sulfhydryl oxidase ALR (Homo sapiens, UniProt P55789); assay: ALR-catalysed DTT oxidation blockers – biochemical, H2O2 detection, luminescence, cherry-pick, dose response (AID 493248)
FAD-linked sulfhydryl oxidase ALR, sequence (P55789 whole entry): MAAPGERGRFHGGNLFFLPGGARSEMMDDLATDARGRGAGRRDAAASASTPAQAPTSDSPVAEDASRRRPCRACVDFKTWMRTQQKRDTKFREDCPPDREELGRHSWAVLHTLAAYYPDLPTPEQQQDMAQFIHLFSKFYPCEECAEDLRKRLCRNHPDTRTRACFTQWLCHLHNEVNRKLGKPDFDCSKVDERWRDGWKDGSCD

[7] = biological target: T1, Heat shock factor protein 1 (Mus musculus, UniProt P38532); assay: enhancement of HSF1-driven luciferase signal – cell-based, NIH3T3, luminescence, dose retest, confirmation (AID 435004); format: functional;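 note: stress induced by proteasome inhibitor MG132 added 30 min after compound; luciferase reporter driven by HSF1 response element in NIH3T3 cells; actives raise luminescence as potentiators of the MG132 stress response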
T1 sequence (P38532 whole entry): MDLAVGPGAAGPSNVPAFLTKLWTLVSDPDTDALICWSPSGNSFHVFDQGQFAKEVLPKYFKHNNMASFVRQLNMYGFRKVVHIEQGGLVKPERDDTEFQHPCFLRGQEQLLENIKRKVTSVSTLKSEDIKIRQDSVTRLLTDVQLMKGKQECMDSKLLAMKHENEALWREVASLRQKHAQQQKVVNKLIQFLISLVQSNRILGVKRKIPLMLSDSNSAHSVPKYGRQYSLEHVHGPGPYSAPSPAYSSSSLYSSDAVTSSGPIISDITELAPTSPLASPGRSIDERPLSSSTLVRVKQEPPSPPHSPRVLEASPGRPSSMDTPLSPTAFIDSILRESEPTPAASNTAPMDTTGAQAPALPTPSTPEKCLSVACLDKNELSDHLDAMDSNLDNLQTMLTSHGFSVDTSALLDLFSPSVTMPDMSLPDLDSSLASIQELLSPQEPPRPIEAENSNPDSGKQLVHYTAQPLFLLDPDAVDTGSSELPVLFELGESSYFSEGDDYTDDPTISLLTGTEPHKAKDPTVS

[8] = biological target: T2, Replicative DNA helicase DnaB (Mycobacterium tuberculosis, UniProt P9WMR3); assay: DnaB intein splicing inhibitors, dose response, biochemical, cell-free fluorescence (AID 449749); format: functional
T2 sequence (P9WMR3 whole entry): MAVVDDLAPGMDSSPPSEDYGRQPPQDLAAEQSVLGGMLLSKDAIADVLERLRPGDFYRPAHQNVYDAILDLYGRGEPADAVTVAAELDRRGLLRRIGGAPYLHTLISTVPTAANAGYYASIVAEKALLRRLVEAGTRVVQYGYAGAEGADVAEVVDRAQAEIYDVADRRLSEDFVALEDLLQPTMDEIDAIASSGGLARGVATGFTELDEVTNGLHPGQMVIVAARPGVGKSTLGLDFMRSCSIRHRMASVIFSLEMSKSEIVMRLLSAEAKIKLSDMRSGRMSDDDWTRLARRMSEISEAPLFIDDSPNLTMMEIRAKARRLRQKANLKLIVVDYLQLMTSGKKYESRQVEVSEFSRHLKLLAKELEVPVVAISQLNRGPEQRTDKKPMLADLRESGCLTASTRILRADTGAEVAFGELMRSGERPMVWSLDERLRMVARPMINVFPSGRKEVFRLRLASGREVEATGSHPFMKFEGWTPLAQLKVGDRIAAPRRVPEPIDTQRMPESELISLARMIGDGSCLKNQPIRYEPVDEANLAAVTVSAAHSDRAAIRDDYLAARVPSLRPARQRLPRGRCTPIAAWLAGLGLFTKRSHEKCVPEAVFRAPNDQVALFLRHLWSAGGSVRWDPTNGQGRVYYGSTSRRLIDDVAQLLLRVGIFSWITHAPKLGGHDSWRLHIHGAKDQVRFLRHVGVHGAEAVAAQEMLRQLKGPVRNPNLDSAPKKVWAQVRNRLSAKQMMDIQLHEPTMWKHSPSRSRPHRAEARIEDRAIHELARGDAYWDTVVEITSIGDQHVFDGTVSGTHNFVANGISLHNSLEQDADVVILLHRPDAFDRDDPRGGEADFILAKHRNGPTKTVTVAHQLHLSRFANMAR

Protein RecA = biological target: T3, Protein RecA (Mycobacterium tuberculosis, UniProt P9WHJ3); assay: Fluorescence Cell-Free Homogeneous Dose Retest to Identify Inhibitors of RecA-Intein Splicing Activity. [Related pubchem assays (depositor defined):AID2097, AID2223, AID489010, AID492950]; format: functional
T3 sequence (P9WHJ3 whole entry): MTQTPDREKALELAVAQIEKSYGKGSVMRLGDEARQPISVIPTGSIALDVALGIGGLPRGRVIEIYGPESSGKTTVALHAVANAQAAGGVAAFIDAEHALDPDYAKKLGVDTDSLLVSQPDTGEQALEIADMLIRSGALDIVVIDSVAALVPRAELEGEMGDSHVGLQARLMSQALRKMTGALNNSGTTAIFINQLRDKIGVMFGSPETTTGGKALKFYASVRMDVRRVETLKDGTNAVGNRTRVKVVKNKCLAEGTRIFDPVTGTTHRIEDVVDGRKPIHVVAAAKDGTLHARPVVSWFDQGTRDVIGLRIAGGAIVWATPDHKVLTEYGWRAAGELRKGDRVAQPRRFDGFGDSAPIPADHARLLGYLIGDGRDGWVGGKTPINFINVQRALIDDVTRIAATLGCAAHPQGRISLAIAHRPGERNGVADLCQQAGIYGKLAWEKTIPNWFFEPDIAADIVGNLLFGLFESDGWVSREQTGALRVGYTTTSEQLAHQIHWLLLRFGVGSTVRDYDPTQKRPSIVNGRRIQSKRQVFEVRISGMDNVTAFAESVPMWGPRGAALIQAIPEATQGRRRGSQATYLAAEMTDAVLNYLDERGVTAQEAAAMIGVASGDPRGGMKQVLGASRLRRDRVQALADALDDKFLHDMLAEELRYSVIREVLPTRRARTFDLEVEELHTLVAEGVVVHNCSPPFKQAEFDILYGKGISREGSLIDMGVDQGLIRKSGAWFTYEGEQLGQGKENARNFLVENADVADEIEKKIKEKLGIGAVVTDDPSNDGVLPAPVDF

INS1 = assay: INS-1E survival protection against cytokine death – cell-based, luminescence, retest, dose response (AID 449756); format: functional; settings: Rattus norvegicus;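 note: cell death triggered by IL-1 beta plus TNF-alpha plus IFN-gamma mixture; protective hits raise ATP signal compared with cytokine alone wells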
[9] = reduction of Shn3 3'UTR-driven luciferase in osteoblasts – cell-based, Clone20 osteoblasts, firefly luciferase, cherry-picked, dose response (AID 624132); format: functional;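 note: firefly luciferase luminescence from reporter carrying the Shn3 3'UTR in osteoblasts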
[10] = loss of viability in HepG2 cells – cell-based, CellTiter-Glo, cherry-picked, cytotoxicity control for Shn3 inhibitor project, dose response (AID 624134); format: functional
[11] = non-specific 3'UTR reporter inhibition in Clone20-Shn3RL – cell-based, Renilla luciferase, cherry-picked, counter-screen for Shn3 inhibitor project, dose response (AID 624133); format: functional

With `O=Cc1cccnc1SCc1ccccc1` the EC50 (BJ [1]) was 10.5 µM (active), the EC50 (BJ [2]) was 16.3 µM (active) and the EC50 (BJ [3]) was 11.1 µM (inconclusive). The EC50 [4] was 21.3 µM (active).

In the case of `O=C(N/N=C/c1cc(I)cc(I)c1O)c1ccccn1`, the AC50 [5] is reported as 1.12 µM (active).

In the case of `COc1ccc(S(=O)(=O)N(C)C[C@H]2Oc3ccc(NS(=O)(=O)c4ccc(F)cc4)cc3CC(=O)N([C@H](C)CO)C[C@H]2C)cc1`, the AC50 [5] is reported as 8.25 µM (active).

With `C=CCNC(=O)C(C)C1CCC2(C)C=CC(=O)C(C)=C2C1O` (stereo not given) the GI50 (P388/ADR) was > 100 µM (inactive), the GI50 (SN12K1) was > 100 µM (inactive) and the GI50 (P388) was > 100 µM (inactive).

For `COc1ccc(NC2CCCN(C(=O)c3cn(C)c4ccccc34)C2)cc1` (stereo not given), the AC50 [6] was 3.1 µM (active).

In the case of `CCOC(=O)C(C)NC(=O)N(C)C12CC3CC(CC(C3)C1)C2` (stereo not given), the GI50 (P388/ADR) is reported as 123 µM (inactive), the GI50 (SN12K1) is reported as 190 µM (inactive) and the GI50 (P388) is reported as 52.2 µM (inactive).

With `CCCCNC1C(CC)C(CCC)C(C#N)(C#N)C1(C#N)C#N` (stereo not given) the EC50 [7] was 11.1 µM (active), the AC50 [8] was > 380 µM (inactive) and the EC50 (Protein RecA) was 2.36 µM (active).

For `Sc1nc2ccc(Cl)cc2s1`, the AC50 [6] was 2.39 µM (active).

With `Cc1ccc(S(=O)(=O)N2CCN(c3ncnc4ccccc34)CC2)cc1` the AC50 (INS1) was 4.61 µM (active), the AC50 [9] was 1.56 µM (active) and the AC50 [10] was 4.03 µM (active). For the same compound, the AC50 [11] was 13.7 µM (active).

For `Cc1c(C2=NN=C(/N=N/c3c(O)cccc3O)/C2=C/c2ccccc2)c(=O)n(-c2ccccc2)n1C`, the GI50 (P388/ADR) was > 100 µM (inactive), the GI50 (SN12K1) was > 100 µM (inactive) and the GI50 (P388) was > 100 µM (inactive).

In the case of `O=C(NC1CC1)c1ccc(CSCc2ccccc2Cl)o1`, the AC50 [6] is reported as 0.549 µM (active).

With `O=C(Nc1ccc(F)c(F)c1)c1ccc(F)c(S(=O)(=O)N2CCC3(CC2)OCCO3)c1` the AC50 [9] was 12.2 µM (active), the AC50 [10] was 42.3 µM (active) and the AC50 [11] was 11.2 µM (active).

In the case of `O=S1(=O)N2CN3CN(C2)CN1C3`, the GI50 (P388/ADR) is reported as 21.2 µM (inactive), the GI50 (SN12K1) is reported as > 100 µM (inactive) and the GI50 (P388) is reported as 18.5 µM (inactive).

In the case of `CN(C)CCNc1c([N+](=O)[O-])cc2c3c(cccc13)C(=O)N(CCN(C)C)C2=O`, the GI50 (P388/ADR) is reported as 1.87 µM (inactive), the GI50 (SN12K1) is reported as 7.83 µM (inactive) and the GI50 (P388) is reported as 0.925 µM (active).

With `C=CCNc1nc(N2CCCCC2)c(C#N)c2c1CN(Cc1ccccc1)CC2` the AC50 [9] was 16.8 µM (active), the AC50 [10] was > 70 µM (inactive) and the AC50 [11] was 28.9 µM (active).

In the case of `CSCC[C@H](NC(=O)N1CCn2c1nc1ccccc12)C(=O)NCc1ccco1`, the AC50 [6] is reported as 6.97 µM (active).

For `COc1cc(NC(=O)COc2cccc3c2OC(C)(C)C3)cc(OC)c1OC`, the AC50 [9] was 4.38 µM (active) and the AC50 [11] was 3.03 µM (active).
